Experimental data taken from patent US20240082221A1, “COMPOSITIONS AND METHODS FOR THE IDENTIFICATION OF COMPOUNDS THAT PROTECT AGAINST LIPOFUSCIN CYTOTOXICITY” (priority 2021, published 2024).

Legend:
human MLKL = test: Western blot of Ser358 phospho-MLKL, phosphorylation and polymerization of MLKL; format: cell-based; settings: non-reducing conditions, cells with A2E/ATRD
Method: (§1) Immunoblotting. Total cell lysates were extracted using RIPA lysis buffer (50 mM TrisHCl, Ph 8.0, 150 mM NaCl, 1% NP40, 0.5% Sodium Deoxycholate, 0.1% SDS, protease-phosphatase inhibitor) after the incubation of the specific sample group in a 48 well plate. Sonication or syringing (20 times) was done followed by centrifugation at 12,000×g for 10 mins and the supernatant was collected and stored in −80° C. Proten concentration from homogenates were assessed by Pierce Rapid Gold BCA protein assay kit (ThermoFisher Scientific, cat.no. A53225). Then 30 μg of protein was analyzed by standard SDS-PAGE gel. Samples were mixed 4:1 (v:v) with Nupage loading buffer with or without 8% 0-mercaptoethanol and heated for 10 min at 72° C. SDS-PAGE was done using 4-12% Nupage gel and buffer (Life, NP0335BOX). Next, SDS-PAGE gel was transferred to nitrocellulose membrane (Whatman, PROTAN BA83) overnight at 20V. The following day, 5% milk in TBS was used for 2 h blocking the membrane and then primary antibody was added in TBST (TBS, 0.1% Tween-20) for overnight at 4° C. Next day membranes were washed and incubated for 2 hours at room temperature with HRP conjugated secondary antibody (cat #G21234, Invitrogen) at 1:10,000 dilution. After 3 more washed membranes were probed with enhanced chemiluminescence (ECL) reagent and detected using an X-ray films for chemiluminescence image (GE healthcare, RPN2106). Scanning/imaging and quantitation of the image was done using silverfast 8 application software and Fiji Image J. Antibodies for Western blotting were list in FIG. 10.
For its phosphorylation, MLKL and its kinase need to be recruited into multiprotein complexes, known as necrosomes (FIG. 4O). Necrosomes are not well conserved among species and vary also with the nature of the stimuli that triggers their formation. […] Considering that phosphorylation of human MLKL at Ser358 (pMLKL), is a hallmark triggering event and marker of necroptosis, the Ser358-phosphorylation and polymerization status of MLKL in cells with LF was determined. […] A prerequisite for the assembly of these RIP kinases into necrosomes was their phosphorylation.

CHOP = test: Western blot of CHOP upregulation (UPR, downstream of PERK); format: cell-based, Human; settings: cells incubated with A2E
Method: as §1

cathepsin D = format: cell-based
Source text: Next, A2E buildups were imaged using a combination of DIC and fluorescence: A2E appeared as granules with well-defined edges, both within cells or after drying over a coverslip (FIGS. 14D and 14E). Next, the ability of the suspected A2E crystals to damage lysosomal membranes was investigated. A recently developed galectin-3 puncta assay for early detection of lysosomal membrane permeabilization (LMP) was used. Briefly, cytosolic galectin-3 rapidly binds to the glycocalyx in the luminal face of lysosomal membranes as they become leaky, which is easily detectable with anti-galectin high-affinity antibodies. L-Leucyl-L-Leucine methyl ester (LLO) a lysosomotropic peptide that causes LMP was used as positive control of puncta formation (FIG. 14E). […] LMP was confirmed by showing the […] of cathepsin D, as surrogate of lysosomal enzymes. […] Also, very remarkable was the observation that the same unique pattern of protection with arimoclomol and Nec-7 but not Nec-1 was observable for LLO (FIG. 14K), consistent with the idea that necroptosis by A2E is being caused by LMP.

ARPE19 cells = test: ATR-induced light-independent cell death; format: cell-based, Human; settings: pre-treatment with 33 μM
Source text: Overall, these indicate that necroptosis is a specific readout of ocular lipofuscin toxicity, easily distinguishable from the poisonous effects of ATR.

[1] = system: activated microglia/macrophages; test: Intravitreal treatment of DKO mice, subretinal microglia/macrophage infiltration; format: in vivo, ABCA4−/− RDH8−/− double knock-out mice (DKO)
Method: Animals. Pigmented ABCA4^−/− RDH8^−/− double knock-out mice (DKO), free of rd8 mutation, were purchased from Jackson laboratories and every 10 generations were in house backcrossed to the C57BL6J control strain, to prevent genetic drifts. Genotyping was performed at Transnetyx (Memphis, TN). Only mice with ABCA4, RDH8, RPE65-Leu450 but no crb1 mutations (retinal degeneration slow) were maintained in the colony. Controls C57BL/6J (Rpe65-Leu450, crb1negative) were also Jackson's lab. All mice were housed at Weill Cornell Medicine's animal facility under a 12 h light (˜10 lux)/12 h dark cycle environment or under complete darkness. Experimental manipulations in the dark were done under dim red light transmitted through a Kodak No. 1 safelight filter (transmittance >560 nm). No retinal degeneration or necroptosis markers were appreciably detected in 20 months or older C57BL6/N (Rpe65-Met450, crb1 positive) obtained from the NAI/NIH. All animal procedures and experiments were approved by the Animal Care and Use Committee of Weill Cornell Medical College in agreement with the guidelines established by the NIH Office of Laboratory Animal Welfare and the Association of Research for Vision and Ophthalmology (ARVO) statement for the use of animals in ophthalmic research. […]
Pharmacological treatment of mice. […] The exact volume of Mock reagent or Kira6 was determined by 10 μl Hamilton syringe. […]

| SMILES | effect on LF-induced phosphorylation and polymerization of MLKL (human MLKL) | effect on LF-induced upregulation of CHOP / UPR (CHOP) | effect on loss of cathepsin-D activity caused by A2E (cathepsin D) | effect on cell death by ATR (ARPE19 cells) | infiltration of CD11b cells in the subretinal space ([1]; RPE-flat mounts from 25- to 27-month-old DKO mice) | Iba-1+ cells attached to the apical side of RPE ([1]; RPE-flat mounts, center to periphery) |
| --- | --- | --- | --- | --- | --- | --- |
| N=C1S/C(=C\c2cn[nH]c2-c2ccc(F)cc2)C(=O)N1c1nccs1 [Nec7, Necrostatin 7] | reduced LF-induced phosphorylation and polymerization of MLKL | completely abrogated | prevented | did not block cell death | reduced the infiltration of CD11b cells |  |
| CC(C)(C)c1nc(-c2ccc(NC(=O)Nc3cccc(C(F)(F)F)c3)c3ccccc23)c2c(N)nccn12 [KIRA6] | prevents phosphorylation and polymerization of MLKL |  |  |  |  | No Iba-1+ cells were detected |
